Experimental data from patent US20250092039A1, “GLUTARIMIDE-CONTAINING PAN-KRAS-MUTANT DEGRADER COMPOUNDS AND USES THEREOF” (Tiger Biotherapeutics Inc., priority 2022, published 2025).
pIC50: −log10 of the molar value.

Legend:
[1] = Pharmacokinetics following single intravenous and oral gavage dosing (AUC0-24h); assay type: in vivo; details: mouse, plasma, male CD-1 mice
Experimental: Compounds disclosed herein were studied for animal tolerability and pharmacokinetics following single intravenous (iv) and oral gavage (po) dosing to male CD-1 mice. For each compound in each dosing route, 3 mice were used with iv dosing volume of 5 mL/kg and po dosing volume of 10 mL/kg. The compounds were formulated in 10% DMSO, 30% PEG400, 60% aqueous solution containing 20% 2-hydroxypropyl-β-cyclodextrin. Blood sampling time points for iv dosing were 0.083, 0.25, 0.5, 1, 2, 4, 8 and 24 h. The sampling time points for po dosing were 0.25, 0.5, 1, 2, 4, 6, 8 and 24 h. Mice activities were monitored and recorded immediately following the dosing. The prepared plasma samples were analyzed using LC/MS/MS on AB Sciex Triple Quad 5500+ system. The PK parameters were determined by non-compartmental analysis using WinNonlin (Version 8.0).

KRAS-G12V/RAF1 = KRAS-G12V/RAF1 (Homo sapiens (Human), UniProt P01116, G12V); assay: KRAS/RAF1 binding inhibition assay (AlphaScreen)
KRAS-G12V/RAF1, sequence (P01116-2 other isoform, or with tags, fused parts or gaps G12V): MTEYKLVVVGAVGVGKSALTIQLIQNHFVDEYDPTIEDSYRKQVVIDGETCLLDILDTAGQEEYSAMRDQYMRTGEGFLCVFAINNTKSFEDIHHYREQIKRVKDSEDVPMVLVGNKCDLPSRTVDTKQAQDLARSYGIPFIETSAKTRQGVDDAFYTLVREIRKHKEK
How it was run: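 IC50 comes from variable-slope nonlinear fits of % inhibition (relative to DMSO) against inhibitor concentration. The AlphaScreen signal tracks the interaction of GppNHp-bound KRAS G12V with the RAF1 RBD after 60 min at 4° C with compound in 2% DMSO final.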

KRAS G12V = KRAS G12V (Homo sapiens (Human), UniProt P01116, G12V); assay: KRAS G12V degradation in SW620 cells (Western blot, DC50); assay type: cell-based; details: 24 hours
KRAS G12V, sequence (P01116-2 other isoform, or with tags, fused parts or gaps G12V): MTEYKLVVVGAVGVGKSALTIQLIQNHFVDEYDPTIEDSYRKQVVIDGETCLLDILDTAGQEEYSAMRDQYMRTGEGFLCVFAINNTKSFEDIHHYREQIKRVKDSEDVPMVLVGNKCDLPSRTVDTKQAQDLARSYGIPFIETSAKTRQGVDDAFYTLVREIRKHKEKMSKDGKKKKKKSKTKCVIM
How it was run: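 KRAS levels were quantified by fluorescent Western blot as percent of the DMSO control after 24 h of compound exposure at 37° C in homozygous KRAS G12V SW620 cells. A four-parameter variable-slope fit of the dose-response gave the half-maximal degradation concentration.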

SW620 cells = assay: 3D cell growth inhibition of SW620 cells carrying endogenous KRAS G12V mutation (CellTiter-Glo 3D, GI50); assay type: cell-based; details: Homo sapiens, SW-620, 144 h; SW620 cells, 6 days; read-out: SW620 3D cell growth GI50
How it was run: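 […], compound exposure lasted 6 days at 37° C, added the day after plating from DMSO stocks over a concentration range. Cells: SW620, KRAS G12V, 3D culture.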

SMILES	AUC(0-t) ([1]; single oral dose 30 mg/Kg) [ng·h/mL]	pIC50 (KRAS-G12V/RAF1)	DC50 (KRAS G12V) [nM]	GI50 (SW620 cells) [nM]	AUC(0-t) ([1]; single oral dose 25 mg/Kg) [ng·h/mL]
CCc1c(F)ccc2cc(O)cc(-c3ncc4c(N5CCC[C@@](C)(O)C5)nc(OCC5(CN6CCC(CN7CCN(c8ccc9c(c8)CN([C@H]8CCC(=O)NC8=O)C9=O)CC7)CC6)CC5)nc4c3F)c12 [Compound 1, (S)-3-(5-(4-((1-((1-(((7-(8-ethyl-7-fluoro-3-hydroxynaphthalen-1-yl)-8-fluoro-4-((R)-3-hydroxy-3-methylpiperidin-1-yl)pyrido[4,3-d]pyrimidin-2-yl)oxy)methyl)cyclopropyl)methyl)piperidin-4-yl)methyl)piperazin-1-yl)-1-oxoisoindolin-2-yl)piperidine-2,6-dione]	220	–	–	–	–
CCc1c(F)ccc2cc(O)cc(-c3ncc4c(N5CCC[C@@](C)(O)C5)nc(OCC5(CN6CCC(F)(CN7CCN(c8ccc9c(c8)CN([C@H]8CCC(=O)NC8=O)C9=O)CC7)CC6)CC5)nc4c3F)c12 [Compound 8, (S)-3-(5-(4-((1-((1-(((7-(8-ethyl-7-fluoro-3-hydroxynaphthalen-1-yl)-8-fluoro-4-((R)-3-hydroxy-3-methylpiperidin-1-yl)pyrido[4,3-d]pyrimidin-2-yl)oxy)methyl)cyclopropyl)methyl)-4-fluoropiperidin-4-yl)methyl)piperazin-1-yl)-1-oxoisoindolin-2-yl)piperidine-2,6-dione]	3420	6.70 to 7.70	< 1	< 10	–
CCc1c(F)ccc2cc(O)cc(-c3ncc4c(N5CCC[C@@](C)(O)C5)nc(OCC5(CN6CCC(C)(CN7CCN(c8ccc9c(c8)CN([C@H]8CCC(=O)NC8=O)C9=O)CC7)CC6)CC5)nc4c3F)c12 [Compound 12, (S)-3-(5-(4-((1-((1-(((7-(8-ethyl-7-fluoro-3-hydroxynaphthalen-1-yl)-8-fluoro-4-((R)-3-hydroxy-3-methylpiperidin-1-yl)pyrido[4,3-d]pyrimidin-2-yl)oxy)methyl)cyclopropyl)methyl)-4-methylpiperidin-4-yl)methyl)piperazin-1-yl)-1-oxoisoindolin-2-yl)piperidine-2,6-dione]	3250	6.70 to 7.70	< 1	< 10	–
CCc1c(F)ccc2cc(O)cc(-c3ncc4c(N5CCCC6(CCO6)C5)nc(OCC5(CN6CCC(CN7CCN(c8ccc9c(c8)CN([C@H]8CCC(=O)NC8=O)C9=O)CC7)CC6)CC5)nc4c3F)c12 (stereo partly drawn) [Compound 23, (3S)-3-(5-(4-((1-((1-(((7-(8-ethyl-7-fluoro-3-hydroxynaphthalen-1-yl)-8-fluoro-4-(1-oxa-6-azaspiro[3.5]nonan-6-yl)pyrido[4,3-d]pyrimidin-2-yl)oxy)methyl)cyclopropyl)methyl)piperidin-4-yl)methyl)piperazin-1-yl)-1-oxoisoindolin-2-yl)piperidine-2,6-dione]	783	6.70 to 7.70	–	< 10	–
CCc1c(F)ccc2cc(O)cc(-c3ncc4c(N5CCC[C@@](C)(O)C5)nc(OCC5(CN6CCC(CN7CCN(c8ccc9c(c8)CN([C@H]8CCC(=O)NC8=O)C9=O)CC7)(OC)CC6)CC5)nc4c3F)c12 [Compound 25, (S)-3-(5-(4-((1-((1-(((7-(8-ethyl-7-fluoro-3-hydroxynaphthalen-1-yl)-8-fluoro-4-((R)-3-hydroxy-3-methylpiperidin-1-yl)pyrido[4,3-d]pyrimidin-2-yl)oxy)methyl)cyclopropyl)methyl)-4-methoxypiperidin-4-yl)methyl)piperazin-1-yl)-1-oxoisoindolin-2-yl)piperidine-2,6-dione]	–	> 7.70	< 1	< 10	525
CCc1cccc2cc(O)cc(-c3ncc4c(N5CCC[C@@](C)(O)C5)nc(OCC5(CN6CCC(F)(CN7CC8(CCN(c9ccc%10c(c9)CN(C9CCC(=O)NC9=O)C%10=O)CC8)C7)CC6)CC5)nc4c3F)c12 (stereo partly drawn) [Compound 28, 3-(5-(2-((1-((1-(((7-(8-ethyl-3-hydroxynaphthalen-1-yl)-8-fluoro-4-((R)-3-hydroxy-3-methylpiperidin-1-yl)pyrido[4,3-d]pyrimidin-2-yl)oxy)methyl)cyclopropyl)methyl)-4-fluoropiperidin-4-yl)methyl)-2,7-diazaspiro[3.5]nonan-7-yl)-1-oxoisoindolin-2-yl)piperidine-2,6-dione]	539	6.70 to 7.70	< 1	< 10	–
CCc1cccc2cc(O)cc(-c3ncc4c(N5CCC[C@@](C)(O)C5)nc(OCC5(CN6CCC(F)(CN7CCN(c8ccc9c(c8)CN([C@H]8CCC(=O)NC8=O)C9=O)CC7)CC6)CC5)nc4c3F)c12 [Compound 33, (S)-3-(5-(4-((1-((1-(((7-(8-ethyl-3-hydroxynaphthalen-1-yl)-8-fluoro-4-((R)-3-hydroxy-3-methylpiperidin-1-yl)pyrido[4,3-d]pyrimidin-2-yl)oxy)methyl)cyclopropyl)methyl)-4-fluoropiperidin-4-yl)methyl)piperazin-1-yl)-1-oxoisoindolin-2-yl)piperidine-2,6-dione]	509	6.70 to 7.70	< 1	< 10	–
CCc1c(F)ccc2cc(O)cc(-c3ncc4c(N5CCCC6(CCO6)C5)nc(OCC5(CN6CCC(CN7CCC(N8CCN(c9ccc%10c(c9)CN([C@H]9CCC(=O)NC9=O)C%10=O)CC8)CC7)CC6)CC5)nc4c3F)c12 (stereo partly drawn) [Compound 38, (3S)-3-(5-(4-(1-((1-((1-(((7-(8-ethyl-7-fluoro-3-hydroxynaphthalen-1-yl)-8-fluoro-4-(1-oxa-6-azaspiro[3.5]nonan-6-yl)pyrido[4,3-d]pyrimidin-2-yl)oxy)methyl)cyclopropyl)methyl)piperidin-4-yl)methyl)piperidin-4-yl)piperazin-1-yl)-1-oxoisoindolin-2-yl)piperidine-2,6-dione]	170	–	1 to 10	< 10	–
CCc1c(F)ccc2cc(O)cc(-c3ncc4c(N5CCC[C@@](C)(O)C5)nc(OCC5(CN6CCC7(CC6)CC(F)(CN6CCN(c8cc(F)c(C9CCC(=O)NC9=O)c(F)c8)CC6)C7)CC5)nc4c3F)c12 (stereo partly drawn) [Compound 46, 3-(4-(4-((7-((1-(((7-(8-ethyl-7-fluoro-3-hydroxynaphthalen-1-yl)-8-fluoro-4-((R)-3-hydroxy-3-methylpiperidin-1-yl)pyrido[4,3-d]pyrimidin-2-yl)oxy)methyl)cyclopropyl)methyl)-2-fluoro-7-azaspiro[3.5]nonan-2-yl)methyl)piperazin-1-yl)-2,6-difluorophenyl)piperidine-2,6-dione]	9130	–	1 to 10	< 10	–
CCc1c(F)ccc2cc(O)cc(-c3ncc4c(N5CCC[C@@](C)(O)C5)nc(OCC5(CN6CCC(F)(CN7CCN(c8cccc9c8n(C)c(=O)n9C8CCC(=O)NC8=O)CC7)CC6)CC5)nc4c3F)c12 (stereo partly drawn) [Compound 65, 3-(4-(4-((1-((1-(((7-(8-ethyl-7-fluoro-3-hydroxynaphthalen-1-yl)-8-fluoro-4-((R)-3-hydroxy-3-methylpiperidin-1-yl)pyrido[4,3-d]pyrimidin-2-yl)oxy)methyl)cyclopropyl)methyl)-4-fluoropiperidin-4-yl)methyl)piperazin-1-yl)-3-methyl-2-oxo-2,3-dihydro-1H-benzo[d]imidazol-1-yl)piperidine-2,6-dione]	10700	–	–	–	–
CCc1c(F)ccc2cc(O)cc(-c3ncc4c(N5CCC[C@@](C)(O)C5)nc(OCC5(CN6CCC(F)(CN7CCN(c8ccc9c(C%10CCC(=O)NC%10=O)nn(C)c9c8)CC7)CC6)CC5)nc4c3F)c12 (stereo partly drawn) [Compound 66, 3-(6-(4-((1-((1-(((7-(8-ethyl-7-fluoro-3-hydroxynaphthalen-1-yl)-8-fluoro-4-((R)-3-hydroxy-3-methylpiperidin-1-yl)pyrido[4,3-d]pyrimidin-2-yl)oxy)methyl)cyclopropyl)methyl)-4-fluoropiperidin-4-yl)methyl)piperazin-1-yl)-1-methyl-1H-indazol-3-yl)piperidine-2,6-dione]	7420	–	–	–	–
CCc1c(F)ccc2cc(O)cc(-c3ncc4c(N5CCC[C@@](C)(O)C5)nc(OCC5(CN6CCC(F)(CN7CCN(c8ccc(C9CCC(=O)NC9=O)c(F)c8)CC7)CC6)CC5)nc4c3F)c12 (stereo partly drawn) [Compound 84, 3-(4-(4-((1-((1-(((7-(8-ethyl-7-fluoro-3-hydroxynaphthalen-1-yl)-8-fluoro-4-((R)-3-hydroxy-3-methylpiperidin-1-yl)pyrido[4,3-d]pyrimidin-2-yl)oxy)methyl)cyclopropyl)methyl)-4-fluoropiperidin-4-yl)methyl)piperazin-1-yl)-2-fluorophenyl)piperidine-2,6-dione]	11900	–	–	–	–
